Structures are written as SMILES.

One test deals with Monoacylglycerol Lipase (MAGL) (Homo sapiens (Human), UniProt Q99685). In words: MAGL inhibition potency (IC50) assay with 4NPA substrate. The format is biochemical. Conditions: Method 2: Cayman Chemical MAGL enzyme, 10 nM; read-out: MAGL Potency (Detection Method). An excerpt: The potency of certain compounds for inhibiting MAGL were obtained using the following assays. The monoacylglycerol lipase inhibitor screening assay kit from Cayman Chemical was used to measure the MAGL potency for the compounds in Table 6 and Table 7. Cayman's Monoacylglycerol Lipase Inhibitor Screening Assay provides a method for screening human MAGL inhibitors. MAGL hydrolyzes 4-nitrophenylacetate resulting in a yellow product, 4-nitrophenol, with an absorbance of 405-412 nm. MAGL Inhibition was measured by the following assay. Monoacylglycerol Lipase (MAGL) inhibition was measured using recombinant MAGL enzyme (aa 2-303 RBC, internal preparation) and the substrate 4-Nitrophenyl acetate (4NPA) (Sigma-Aldrich, N8130). Hydrolysis of the substrate in the presence of the enzyme was measured by absorbance at 405 nm. 10 μL of assay buffer (10 mM Tris pH 7.5, 1 mM EDTA, 0.9% DMSO) was added to a black 384-well non-binding plate with clear bottom (Greiner, 781906) for each reaction. […] DMSO control wells were included for reference. A 10.8 nM (1.8×) MAGL mix in assay buffer was prepared, with 25 μL added to each reaction well, for a final assay concentration of 6 nM. No enzyme wells received 25 μL of buffer. Plate was incubated at room temperature for 30 minutes. 35 mM solution of 4NPA in methanol was prepared daily. A 4.5×4NPA substrate solution was prepared in assay buffer and 10 μL was added to each reaction well, for a final assay concentration of 0.25 mM. Plate was spun for 1 minute at 1000 rpm before measuring absorbance using a CLARIOstar plate reader (BMG Labtech). A kinetic reading at 405 nm was done every minute for 30 minutes. Data was analyzed using the linear slope of the reaction progress curve and the average of the no-enzyme wells (background) was subtracted from the data. The background-subtracted slope data was converted to % activity using the average of wells with enzyme and DMSO vehicle. IC50s were calculated using GraphPad software (Sigmoidal dose response, variable slope equation). […] Table 8 provides potency measurements of MAGL inhibition measured using the Potency Assay of Example 22 above, with the following modifications described in Table C. [table]
Sequence of Monoacylglycerol Lipase (MAGL) (Q99685 2-303): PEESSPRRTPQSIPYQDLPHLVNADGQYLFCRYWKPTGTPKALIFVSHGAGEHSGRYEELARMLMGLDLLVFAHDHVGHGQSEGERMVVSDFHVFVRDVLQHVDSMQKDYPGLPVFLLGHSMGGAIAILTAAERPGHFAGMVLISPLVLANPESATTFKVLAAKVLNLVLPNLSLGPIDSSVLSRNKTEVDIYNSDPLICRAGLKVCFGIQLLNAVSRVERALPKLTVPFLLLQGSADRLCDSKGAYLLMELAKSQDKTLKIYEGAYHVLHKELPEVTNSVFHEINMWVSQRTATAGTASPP
For `Cc1cc(C2CC3(C2)CN(C(=O)c2ccc(F)cc2OC(C)C)C3)n(-c2ccccc2C)n1` [Compound 177, (4-fluoro-2-isopropoxyphenyl)(6-(3-methyl-1-(o-tolyl)-1H-pyrazol-5-yl)-2-azaspiro[3.3]heptan-2-yl)methanone], the IC50 is 0.05 to 0.15 µM.

As to `Cc1ccccc1NC(=O)C1CC2(C1)CN(C(=O)c1cc(O)ccc1F)C2` [Compound 186, N-o-tolyl-2-(2-fluoro-5-hydroxybenzoyl)-2-aza-6-spiro[3.3]heptanecarboxamide], the IC50 fell in the range of 1 to 5.1 µM.

Take `CCOc1cc(F)ccc1C(=O)N1CC2(CC(C(=O)N(C)c3ccccc3C)C2)C1` [Compound 187, 2-(2-Ethoxy-4-fluorobenzoyl)-N-Methyl-N-(o-tolyl)-2-azaspiro [3.3] heptane-6-carboxamide]: the IC50 was in the range of 0.15 to 0.5 µM.

The test is the same for the next values; noted with them: Method 2: Cayman Chemical MAGL enzyme, 10 nM; read-out: Potency (MAGL inhibition).
Take `Cc1cc(C2CC3(C2)CN(C(=O)c2ccoc2)C3)n(-c2ccccc2C)n1` [Compound 179]: the IC50 was more than 10 µM.

`Cc1cc(C2CC3(C2)CN(C(=O)c2cccn2C)C3)n(-c2ccccc2C)n1` [Compound 181]: the IC50 is more than 10 µM.

Take `Cc1cc(C2CC3(C2)CN(C(=O)c2ccn(C)c2)C3)n(-c2ccccc2C)n1` [Compound 182]: the IC50 is more than 10 µM.

As to `Cc1cc(C2CC3(C2)CN(C(=O)c2ccc[nH]2)C3)n(-c2ccccc2C)n1` [Compound 183], the IC50 was more than 10 µM.

As to `Cc1cc(C2CC3(C2)CN(C(=O)c2cc[nH]c2)C3)n(-c2ccccc2C)n1` [Compound 184], the IC50 was more than 10 µM.

Take `CCOc1cc(F)ccc1C(=O)N1CC2(CC(C(=O)Nc3ccccc3C)C2)C1` [Compound 188]: the IC50 is more than 10 µM.

The test is the same for the next values; noted with them: Method 4: Cayman Chemical MAGL enzyme, 15 nM; read-out: MAGL Potency (Detection Method).
Take `CCOc1cc(F)ccc1C(=O)N1CC2(CC(C(=O)N(CC)c3ccccc3C)C2)C1` [Compound 203, N-ethyl-N-o-tolyl-2-(2-ethoxy-4-fluorobenzoyl)-2-aza-6-spiro[3.3]heptanecarboxamide]: the IC50 lay in the range of 0.15 to 0.5 µM.

`CCOc1cc(F)ccc1C(=O)N1CC2(CC(C(=O)N(C)c3ccccc3C(C)C)C2)C1` [Compound 205, N-o-cumenyl-N-methyl-2-(2-ethoxy-4-fluorobenzoyl)-2-aza-6-spiro[3.3]heptanccarboxamide]: the IC50 is 0.5 to 1 µM.

As to `CCOc1cc(F)ccc1C(=O)N1CC2(CC(C(=O)N(C)c3ccccc3Cl)C2)C1` [Compound 206, N-o-chlorophenyl-N-methyl-2-(2-ethoxy-4-fluorobenzoyl)-2-aza-6-spiro[3.3]heptanecarboxamide], the IC50 lay in the range of 1 to 5.1 µM.

The test is the same for the next values; noted with them: Method 4: Cayman Chemical MAGL enzyme, 15 nM; read-out: Potency (MAGL inhibition).
For `CCOc1cc(F)ccc1C(=O)N1CC2(CC(C(=O)N(C)c3cccnc3C)C2)C1` [Compound 198], the IC50 is more than 10 µM.

Staying with this test, now noted: Method 6: Reaction Biology MAGL enzyme, 6 nM; read-out: MAGL Potency (Detection Method).
Take `Cc1cc(F)c(C(=O)N2CC3(CC(n4ncc(C)c4-c4ccccc4C)C3)C2)cc1O` [Compound 407]: the IC50 lay in the range of 0.05 to 0.15 µM.

Consider `Cc1cnn(C2CC3(C2)CN(C(=O)c2cc(O)ccc2F)C3)c1-c1ccccc1F` [Compound 408, (2-fluoro-5-hydroxyphenyl){6-[5-(o-fluorophenyl)-4-methyl-1-pyrazolyl]-2-aza-2-spiro[3.3]heptyl}methanone], for which the IC50 was 0.05 to 0.15 µM.

The same test, now with this note: Method 6: Reaction Biology MAGL enzyme, 6 nM; read-out: Potency (MAGL inhibition).
For the molecule `Cc1cnn(C2CC3(C2)CN(C(=O)c2cc(O)ccc2F)C3)c1-c1ccccc1Cl` [Compound 404], the IC50 was more than 10 µM.

As for `Cc1ccccc1-c1ccnn1C1CC2(C1)CN(C(=O)c1cc(O)ccc1F)C2` [Compound 405], the IC50 is more than 10 µM.

`Cc1cc(-c2ccccc2C)n(C2CC3(C2)CN(C(=O)c2cc(O)ccc2F)C3)n1` [Compound 406]: the IC50 was more than 10 µM.

The test is the same for the next values; noted with them: Method 14: Reaction Biology MAGL enzyme, 6 nM; read-out: MAGL Potency (Detection Method).
With `Cc1cc(C2CC3(C2)CN(C(=O)c2cc(O)ccc2F)C3)n(-c2cc(F)ccc2C)n1` [Compound 365, (2-fluoro-5-hydroxyphenyl){6-[1-(5-fluoro-2-tolyl)-3-methyl-5-pyrazolyl]-2-aza-2-spiro[3.3]heptyl}methanone], the IC50 was less than 0.05 µM.

With `Cc1cc(C2CC3(C2)CN(C(=O)c2cc(O)ccc2F)C3)n(-c2ccccc2C(F)(F)F)n1` [Compound 366, (2-fluoro-5-hydroxyphenyl)(6-{3-methyl-1-[o-(trifluoromethyl)phenyl]-5-pyrazolyl}-2-aza-2-spiro[3.3]heptyl)methanone], the IC50 is less than 0.05 µM.

Regarding `Cc1cc(C2CC3(C2)CN(C(=O)c2c(F)ccc(O)c2C)C3)n(-c2ccccc2C)n1` [Compound 370], the IC50 fell in the range of 0.5 to 1 µM.

For the molecule `Cc1cc(C2CC3(C2)CN(C(=O)c2cc(O)c(C)cc2F)C3)n(-c2ccccc2C)n1` [Compound 371, (2-fluoro-5-hydroxy-4-tolyl){6-[3-methyl-1-(o-tolyl)-5-pyrazolyl]-2-aza-2-spiro[3.3]heptyl}methanone], the IC50 is 0.05 to 0.15 µM.

`Cc1ccccc1-c1c(C)cnn1C1CC2(C1)CN(C(=O)c1cc(O)ccc1F)C2` [Compound 373, (2-fluoro-5-hydroxyphenyl){6-[4-methyl-5-(o-tolyl)-1-pyrazolyl]-2-aza-2-spiro[3.3]heptyl}methanone]: the IC50 fell in the range of 0.15 to 0.5 µM.

`Cc1cc(C2CC3(C2)CN(C(=O)c2ccc(F)cc2OC2CC2)C3)n(-c2ccccc2C)n1` [Compound 374, (2-cyclopropoxy-4-fluorophenyl) {6-[3-methyl-1-(o-tolyl)-5-pyrazolyl]-2-aza-2-spiro[3.3]heptyl}methanone]: the IC50 was 0.15 to 0.5 µM.

With `O=C(c1cc(O)ccc1F)N1CC2(CC(n3ncnc3-c3ccccc3Cl)C2)C1` [Compound 376, {6-[5-(o-chlorophenyl)-1H-1,2,4-triazol-1-yl]-2-aza-2-spiro[3.3]beptyl}(2-fluoro-5-hydroxyphenyl)methanone], the IC50 fell in the range of 0.05 to 0.15 µM.

As to `O=C(c1cc(O)ccc1F)N1CC2(CC(c3nnc(-c4ccccc4Cl)o3)C2)C1` [Compound 377, {6-[5-(o-chlorophenyl)-1,3,4-oxadiazol-2-yl]-2-aza-2-spiro[3.3]heptyl}(2-fluoro-5-hydroxyphenyl)methanone], the IC50 is 0.5 to 1 µM.

With `Cc1ccccc1-c1nnc(C2CC3(C2)CN(C(=O)c2cc(O)ccc2F)C3)o1` [Compound 378, (2-fluoro-5-hydroxyphenyl){6-[5-(o-tolyl)-1,3,4-oxadiazol-2-yl]-2-aza-2-spiro[3.3]heptyl}methanone], the IC50 lay in the range of 0.5 to 1 µM.

In the case of `Cc1cc(F)ccc1-n1c(C)cnc1C1CC2(C1)CN(C(=O)c1cc(O)ccc1F)C2` [Compound 380, (2-fluoro-5-hydroxyphenyl){6-[1-(4-fluoro-2-tolyl)-5-methyl-2-imidazolyl]-2-aza-2-spiro[3.3]heptyl}methanone], the IC50 was in the range of 1 to 5.1 µM.

Turning to `Cc1ccccc1-c1ccn(C(=O)C2CC3(C2)CN(C(=O)c2cc(O)ccc2F)C3)n1` [Compound 381, {2-(2-fluoro-5-hydroxybenzoyl)-2-aza-6-spiro[3,3]heptyl}[3-(o-tolyl)-1-pyrazolyl]methanone], the IC50 was in the range of 0.15 to 0.5 µM.

For the molecule `O=C(c1cc(O)ccc1F)N1CC2(CC(c3nccn3-c3ccccc3)C2)C1` [Compound 401, (2-fluoro-5-hydroxyphenyl){6-(1-phenyl-2-imidazolyl)-2-aza-2-spiro[3.3]heptyl}methanone], the IC50 lay within 0.5 to 1 µM.

The test is the same for the next values; noted with them: Method 14: Reaction Biology MAGL enzyme, 6 nM; read-out: Potency (MAGL inhibition).
With `Cc1cc(C2CC3(C2)CN(C(=O)c2cc4c(cc2F)CCO4)C3)n(-c2ccccc2C)n1` [Compound 368], the IC50 is more than 10 µM.

Regarding `O=C(c1cc(O)ccc1F)N1CC2(CC(C(=O)N3CCOCC3)C2)C1` [Compound 384], the IC50 was more than 10 µM.

With `O=C(c1cc(O)ccc1F)N1CC2(CC(C(=O)N3CCCC3)C2)C1` [Compound 388], the IC50 was more than 10 µM.

As for `O=C(c1cc(O)ccc1F)N1CC2(CC(C(=O)N3CCC4(COC4)C3)C2)C1` [Compound 391], the IC50 is more than 10 µM.

Turning to `O=C(NCC1COC1)C1CC2(C1)CN(C(=O)c1cc(O)ccc1F)C2` [Compound 395], the IC50 is more than 10 µM.

Take `O=C(c1cc(O)ccc1F)N1CC2(CC(C(=O)N3CCC4(CCCO4)C3)C2)C1` (stereo not shown) [Compound 400]: the IC50 is more than 10 µM.

Consider `Cc1cc(C2CC3(C2)CN(C(=O)c2ccc4c(c2)OCC4)C3)n(-c2ccccc2C)n1` [Compound 402], for which the IC50 is more than 10 µM.

Consider `Cc1cc(C2CC3(C2)CN(C(=O)c2cccc4c2CCO4)C3)n(-c2ccccc2C)n1` [Compound 403], for which the IC50 is more than 10 µM.

The same test, now with this note: Methods 2, 3; read-out: MAGL Potency (Detection Method).
Consider `Cc1ccccc1N(C)C(=O)C1CC2(C1)CN(C(=O)c1cc(O)ccc1F)C2` [Compound 185, 2-(2-Fluoro-5-hydroxybenzoyl)-N-Methyl-N-(o-tolyl)-2-azaspiro [3.3]heptane-6-carboxamide], for which the IC50 fell in the range of 0.05 to 0.15 µM.

For the molecule `CCOc1cc(F)ccc1C(=O)N1CC2(CC(C(=O)N(C)c3ccccc3C)C2)C1` [Compound 187, 2-(2-Ethoxy-4-fluorobenzoyl)-N-Methyl-N-(o-tolyl)-2-azaspiro [3.3] heptane-6-carboxamide], the IC50 lay in the range of 1 to 5.1 µM.

(Values after US20240308985A1 (Psy Therapeutics, Inc., priority 2021, published 2024).)
